The text below walks through data of patent publication US12559725B2, “Formulation comprising extracellular vesicles, method for producing the same, and uses thereof” (MacKay Memorial Hospital, priority 2018, dated 2026).

Test [1] relates to mouse model of anti-aging. Description: D-galactose aging mouse model, Morris water maze. Format: in vivo, BALB/c mice. To be noted: D-galactose 6 weeks, then intraperitoneal three times a week for 3 weeks. How it is done:
In a mouse model of anti-aging, BALB/c mice were subcutaneously treated with 100 mg/kg D-galactose every day for 6 consecutive weeks. Then, the mice were intraperitoneally administered with 0.1 ml PBS (serving as the negative control group), 0.1 ml curcumin (1 μM), 0.1 ml ucMSC-naive-EVs, 0.1 ml EV-curcumin (about 120 ug protein of EVs, 2.2×10^11 vesicles), or 5 mg/kg β-lapachone three times a week for 3 weeks after 6 weeks of aging induction and the pre-test of cognition assessment. The anti-aging effect of ucMSC-naive-EVs and EV-curcumin was then assessed by the cognition ability in Morris water maze model.

Test [2] concerns U937 myeloid cells. The experiment in a line: Reactive oxygen species in PMA-stimulated U937 myeloid cells (DCFH flow cytometry). The test is classed as cell-based. To be noted: EVs 0.15 mg/ml, curcumin 0.8 mM, 30 minutes, vs medium only. How it is done: The U937 myeloid cells were seeded in 24-well plate at a density of 8×10^4 cells/well (in 0.4 ml) followed by the stimulation of 100 nM PMA (phorbol myristate acetate) at 37° C., 5% CO2 incubator for 48 hours. The cells were washed with PBS twice before adding medium with and without ucMSC-naive-EVs (0.15 mg/ml), curcumin (Cur, 0.8 mM) or EV-curcumin (Cur/EVs, 0.8 mM) for 30 minutes. The reactions were incubated with DCFH ([…]) at 1 uM for 20 minutes before flow cytometric analysis of H2O2-mediated fluorescence at 480 nm emission.
In general terms: In flow cytometry, cells or beads pass a laser one at a time.

Test [3] concerns cisplatin-induced hearing loss. The experiment in a line: Cisplatin-induced hearing loss mouse model (ABR, organ of Corti explants). Format: in vivo, C57BL/6 mice. The conditions noted are these: intraperitoneal 0.1 ml day 1 to day 5; ABR threshold at 12 kHz, 10 days post-treatment. As to the method:
In a mouse model of hearing loss, the inner cell damage was induced by administering to C57BL/6 mice 4 mg/kg cisplatin daily for 5 consecutive days, in which the mice were intraperitoneally treated with 0.1 ml PBS (serving as the negative control group), 0.1 ml ucMSC-naive-EVs or 0.1 ml EV-curcumin (about 120 ug protein of EVs, 2.2×10^11 to 2.8×10^11 vesicles) from day 1 to day 5. The protecting effect of ucMSC-naive-EVs and EV-curcumin was assessed by analyzing the cell number and function of the inner ear cells. To assess the protecting effect of the present EV formulation on hearing loss and inner ear cell death, auditory brain response (ABR) threshold at 12 kHz and immunofluorescence images of organ of Corti explants were measured 10 days post-treatment. To obtain the ucMSC-EVs preparations with and without curcumin incorporation enough for the animal study requiring a larger amount of EVs for daily intraperitoneal injection, the ucMSC-EVs in paired formulations with and without curcumin incorporation were prepared and stored at −80° C. for at least 3 months. To make sure homogeneous application of ucMSC-EV to each mouse, different batches of EVs were thawed and mixed for the experiment right before the animal study. One-way ANOVA with Duncan post hoc test was performed when compared with the control or cisplatin group.

On to `CC1(C)CCC2=C(O1)c1ccccc1C(=O)C2=O` [β-lapachone], for which, in test [1], the “time to reach the safety island (escape latency), Morris water maze” value is recorded as “obviously reduced the time to reach the safety island”.

As for `COc1cc(/C=C/C(=O)CC(=O)/C=C/c2ccc(O)c(OC)c2)ccc1O` [curcumin], the “production of reactive oxygen species (H2O2-mediated fluorescence)” value in test [2] is listed as “significantly decreased the production of reactive oxygen species”. Moreover, the “time to reach the safety island (escape latency), Morris water maze” value in test [1] is recorded as “obviously reduced the time to reach the safety island”. Besides, in test [3], the “cisplatin-induced hearing loss (ABR)” value is on record as “not curcumin alone”.
